Counter-ions that a name gives are not always drawn.

The test deals with Pseudomonas aeruginosa PAM1001. Put plainly: microbe, parasite or virus in culture. The format is cell-based. As to conditions: Pseudomonas aeruginosa, PAM1001, read-out: Inhibition (%) of growth of P. aeruginosa PAM1001. How it is done:
For compounds labeled with the prefix ‘D’, potentiation is measured by inhibition of growth of Pseudomonas aeruginosa PAM1001 at varying concentrations of efflux pump inhibitors (EPIs) in the presence of levofloxacin (0.25 microg/mL). Bacteria are grown in Mueller Hinton Broth (MHB, Difco) with an initial inoculum of 1×10^6 CFU/mL. Kinetics of bacterial growth is monitored, during 18 h of incubation at 37° C., by measurement of the culture absorbance at 650 nm using a 96-well plate spectrophotometer (SpectraMax, Molecular Devices). The inhibitory effect of EPIs is expressed as a percentage of growth inhibition compared to a control bacterial culture grown in the presence of 0.25 microg/mL levofloxacin but without EPIs.
`NCC(=O)N[C@H]1CN[C@H](C(=O)N[C@H](CCc2ccccc2)C(=O)Nc2ccc3c(c2)CCC3)C1` [Compound D203, trans-4-Glycylamino-L-Prolyl-D-Homophenylalanine 5-Indanylamide Dihydrochloride]: the inhibition (usually the change of the read-out against control, counted positive when it falls) at 2.5 µg/mL stood at 18%; the inhibition at 5 µg/mL is 17%; the inhibition at 10 µg/mL was determined as 100%; the inhibition at 20 µg/mL was determined as 100%. Moreover, the inhibition at 40 µg/mL was determined as 100%.

`Cc1ccc(NC(=O)[C@@H](CCc2ccccc2)NC(=O)[C@@H]2C[C@@H](NC(=O)CN)CN2)cc1C` [Compound D204, trans-4-Glycylamino-L-Prolyl-D-Homophenylalanine 3,4-Dimethylphenylamide Dihydrochloride]: the inhibition at 2.5 µg/mL is 18%, the inhibition at 5 µg/mL is 16%, the inhibition at 10 µg/mL worked out at 3% and the inhibition at 20 µg/mL came to 100%. Further, the inhibition at 40 µg/mL stood at 100%.

For `Cc1cc(C)cc(NC(=O)[C@@H](CCc2ccccc2)NC(=O)[C@@H]2C[C@@H](NC(=O)CN)CN2)c1` [Compound D205, trans-4-Glycylamino-L-Prolyl-D-Homophenylalanine 3,5-Dimethylphenylamide Dihydrochloride], the inhibition at 2.5 µg/mL turned out to be 16%, the inhibition at 5 µg/mL stood at 13%, the inhibition at 10 µg/mL came out at 100% and the inhibition at 20 µg/mL was determined as 100%. The inhibition at 40 µg/mL was found to be 100%.

On to `Cc1cc(NC(=O)[C@@H](CCc2ccccc2)NC(=O)[C@@H]2C[C@@H](NC(=O)CN)CN2)ccc1Cl` [Compound D206, trans-4-Glycylamino-L-Prolyl-D-Homophenylalanine 4-Chloro-3-Methylphenylamide Dihydrochloride], for which the inhibition at 2.5 µg/mL stood at 16%, the inhibition at 5 µg/mL was 10%, the inhibition at 10 µg/mL amounted to 100% and the inhibition at 20 µg/mL is 99%. In addition, the inhibition at 40 µg/mL stood at 100%.

Take `NCC(=O)N[C@H]1CN[C@H](C(=O)NCC(=O)Nc2ccc(Cc3ccccc3)cc2)C1` [Compound D210, trans-4-Glycylamino-L-Prolylglycine 4-Benzylphenyl-amide Dihydrochloride]: the inhibition at 2.5 µg/mL amounted to 14%, the inhibition at 5 µg/mL was 16%, the inhibition at 10 µg/mL is 12% and the inhibition at 20 µg/mL stood at 99%. Further, the inhibition at 40 µg/mL is 100%.

On to `NCC(=O)N[C@H]1CN[C@H](C(=O)Nc2ccc(Oc3ccccc3)cc2)C1` [Compound D301, trans-4Glycylamino-L-Proline 4-Phenoxyphenylamide Dihydrochloride], for which the inhibition at 2.5 µg/mL was found to be 17%, the inhibition at 5 µg/mL worked out at 14%, the inhibition at 10 µg/mL came to 81% and the inhibition at 20 µg/mL was 99%. In addition, the inhibition at 40 µg/mL was determined as 99%.

Consider `Cc1ccc(Oc2ccc(NC(=O)[C@@H]3C[C@@H](NC(=O)CN)CN3)cc2)cc1` [Compound D302, trans-4-Glycylamino-L-Proline 4-(4′-Methylphenoxy)-phenylamide Dihydrochloride], for which the inhibition at 2.5 µg/mL is 22%, the inhibition at 5 µg/mL came to 17%, the inhibition at 10 µg/mL was 97% and the inhibition at 20 µg/mL worked out at 100%. The inhibition at 40 µg/mL is 100%.

Regarding `NCC(=O)N[C@H]1CN[C@H](C(=O)Nc2ccc(Oc3ccc(Cl)cc3)cc2)C1` [Compound D303, trans-4-Glycylamino-L-Proline 4-(4′-Chlorophenoxy)-phenylamide Dihydrochloride], the inhibition at 2.5 µg/mL was 18%, the inhibition at 5 µg/mL is 91%, the inhibition at 10 µg/mL is 100% and the inhibition at 20 µg/mL was determined as 100%. For the same compound, the inhibition at 40 µg/mL amounted to 99%.

On to `NCC(=O)N[C@H]1CN[C@H](C(=O)Nc2ccc(Nc3ccccc3)cc2)C1` [Compound D304, trans-4-Glycylamino-L-Proline 4-Phenylamino-phenylamide Dihydrochloride], for which the inhibition at 2.5 µg/mL was determined as 17%, the inhibition at 5 µg/mL was determined as 15%, the inhibition at 10 µg/mL came out at 10% and the inhibition at 20 µg/mL is -11%. Moreover, the inhibition at 40 µg/mL worked out at 100%.

With `NCC(=O)N[C@H]1CN[C@H](C(=O)Nc2ccc(Cc3ccccc3)cc2)C1` [Compound D308, trans-4-Glycylamino-L-Proline 4-Benzylphenylamide Dihydrochloride], the inhibition at 2.5 µg/mL is 16%, the inhibition at 5 µg/mL was 14%, the inhibition at 10 µg/mL came to 98% and the inhibition at 20 µg/mL worked out at 100%. Also, the inhibition at 40 µg/mL turned out to be 100%.

Regarding `CC(C)(C)c1ccc(NC(=O)[C@@H]2C[C@@H](NC(=O)CN)CN2)cc1` [Compound D313, trans-4-Glycylamino-L-Proline 4-tert-Butylphenyl-amide Dihydrochloride], the inhibition at 2.5 µg/mL came to 17%, the inhibition at 5 µg/mL amounted to 17%, the inhibition at 10 µg/mL came to 96% and the inhibition at 20 µg/mL stood at 99%. The inhibition at 40 µg/mL stood at 99%.

As to `NCC(=O)N[C@H]1CN[C@H](C(=O)Nc2ccc(OCc3ccccc3)cc2)C1` [Compound D317, trans-4-Glycylamino-L-Proline 4-Benzyloxyphenyl-amide Dihydrochloride], the inhibition at 2.5 µg/mL was 20%, the inhibition at 5 µg/mL is 18%, the inhibition at 10 µg/mL is -1% and the inhibition at 20 µg/mL stood at 99%. Moreover, the inhibition at 40 µg/mL came to 99%.

Take `NCC(=O)N[C@H]1CN[C@H](C(=O)Nc2cccc(OCc3ccccc3)c2)C1` [Compound D318, trans-4-Glycylamino-L-Proline 3-Benzyloxyphenyl-amide Dihydrochloride]: the inhibition at 2.5 µg/mL came out at 17%, the inhibition at 5 µg/mL came out at 16%, the inhibition at 10 µg/mL came out at 19% and the inhibition at 20 µg/mL is 99%. The inhibition at 40 µg/mL was found to be 99%.

On to `NCC(=O)N[C@H]1CN[C@H](C(=O)Nc2ccc(CSc3ccccc3)cc2)C1` [Compound D319, trans-4-Glycylamino-L-Proline 4-(Phenylthiomethyl)-phenylamide Dihydrochloride], for which the inhibition at 2.5 µg/mL turned out to be 19%, the inhibition at 5 µg/mL is 18%, the inhibition at 10 µg/mL came out at 99% and the inhibition at 20 µg/mL is 100%. Further, the inhibition at 40 µg/mL stood at 100%.

On to `NCC(=O)N[C@H]1CN[C@H](C(=O)Nc2ccc(SCc3ccccc3)cc2)C1` [Compound D320, trans-4-Glycylamino-L-Proline 4-Benzylthiophenyl-amide Dihydrochloride], for which the inhibition at 2.5 µg/mL was 23%, the inhibition at 5 µg/mL amounted to 21%, the inhibition at 10 µg/mL came to 97% and the inhibition at 20 µg/mL was determined as 100%. The inhibition at 40 µg/mL stood at 100%.

Consider `NC[C@H](O)C(=O)N[C@H]1CN[C@H](C(=O)Nc2ccc(Oc3ccccc3)cc2)C1` [Compound D321, trans-4-((S)-3-Amino-2-Hydroxypropionylamino)-L-Proline 4-Phenoxyphenylamide Dihydrochloride], for which the inhibition at 2.5 µg/mL was determined as 15%, the inhibition at 5 µg/mL was 14%, the inhibition at 10 µg/mL worked out at 84% and the inhibition at 20 µg/mL was 100%. In addition, the inhibition at 40 µg/mL was 100%.

These data come from patent US6399629B1, “Efflux pump inhibitors” (priority 1998, dated 2002).
